What was measured:
[1] = molecular target: T1, porcine pancreatic lipase (Sus scrofa, UniProt P00591); details: same conditions as glycerol trioleate; cited from earlier work
T1 sequence (P00591 1-450): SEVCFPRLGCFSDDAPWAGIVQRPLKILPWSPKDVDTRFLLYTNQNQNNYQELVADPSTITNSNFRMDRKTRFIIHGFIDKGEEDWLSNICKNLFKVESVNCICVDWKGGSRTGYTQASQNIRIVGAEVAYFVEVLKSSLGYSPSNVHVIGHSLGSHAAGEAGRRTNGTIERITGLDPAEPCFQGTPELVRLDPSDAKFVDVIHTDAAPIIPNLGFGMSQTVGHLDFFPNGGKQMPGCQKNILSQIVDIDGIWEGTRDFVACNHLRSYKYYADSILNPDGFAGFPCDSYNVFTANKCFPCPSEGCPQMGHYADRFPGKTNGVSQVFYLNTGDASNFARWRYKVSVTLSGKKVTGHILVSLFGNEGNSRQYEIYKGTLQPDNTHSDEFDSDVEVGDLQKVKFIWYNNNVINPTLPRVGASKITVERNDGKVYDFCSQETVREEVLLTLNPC

[2] = molecular target: T1, porcine pancreatic lipase; test: Activation of ester hydrolase in the vinyl ester reagent system (ADH/NADH coupled, 340 nm); format: biochemical; details: for activation of porcine pancreatic lipase by quaternary ammonium compound: in the absence of bile salts; for activation of porcine pancreatic lipase by bile salt: vinyl omega-phenyl octanoate as substrate, sodium taurodeoxycholate zero to 25 mM, sodium cholate zero to 10 mM, sodium chenodeoxycholate zero to 15 mM
Excerpt: (§1) In accordance with the preferred embodiments of this invention, we prefer to carry out the analysis of carboxylic acid ester hydrolase by admixing an unknown, suspected of containing this enzyme with a reagent system wherein first a vinyl ester of a carboxylic acid is hydrolyzed by the enzyme into the carboxylic acid and unstable vinyl alcohol. As a second step, the vinyl alcohol isomerizes to acetaldehyde. This sequence of conversions is indicated diagrammatically as follows: [drawing 1] The acetaldehyde of reaction (2) may be detected by a variety of means known to the prior art. For example, enzymatic methods are illustrated below in reactions (3a) and (3b), and involve monitoring the disappearance (3a) or appearance (3b) of NADH by measuring its absorbance or fluorescence at suitable wavelengths. The velocity of reactions (3a) or (3b) may then be equated with reaction (1) when the components of the mixture are all in sufficient excess so that only the ester hydrolase activity is limiting. Chemical methods (3c) may include any nonenzymatic means for the quantitative analysis of acetaldehyde. [formula]
(§2) The range of concentrations of sodium deoxycholate (or its free acid) is from zero to about 25 mM, but the preferred range is about 15 to 21 mM for porcine pancreatic lipase, crude human pancreas extract, and lipase in human blood serum.
Activation of porcine pancreatic lipase and crude human pancreas extract can also be accomplished with various cationic alkyl and alkyl-aryl quaternary ammonium compounds such as cetyltrimethyl ammonium bromide (CTAB) and cetyldimethylbenzyl ammonium chloride (CDMBAC) in the absence of bile salts. The useful range of CTAB concentrations for activation of porcine pancreatic lipase is from about 4 to 12 mM, but most preferred is from 7 to 9 mM. The useful range of CDMBAC concentrations for activation of porcine pancreatic lipase is from about 2 to 9 mM, but most preferred is about 5 to 9 mM. When used together sodium deoxycholate (or its acid) and either CTAB or CDMBAC activate porcine pancreatic lipase about 10 fold over the activity without these components together. Sodium deoxycholate and CTAB are useful when used together in the ranges of zero to 25 mM and zero to 15 mM, respectively, but the preferred concentrations are 10 mM to 20 mM sodium deoxycholate and 4 mM to 10 mM CTAB. When deoxycholate and CDMBAC are used together for the activation of porcine pancreatic lipase the useful concentrations of deoxycholate are from zero to about 20 mM, but the preferred concentrations are 10 mM to 20 mM deoxycholate and 10 mM to 15 mM CDMBAC.
(2) Buffer Solution. While the method of preparation of the buffer solution is not critical, one method for forming it is as follows: Weigh into a one liter beaker 3.134 gm 1, 1, 3, 3-tetramethyl-1-phenoxy (polyethoxy) butane (n=polydisperse, average 9) and 12.912 gm 1, 1, 3, 3-tetramethyl-1-phenoxy(polyethoxy)n butane, 70% (n=polydisperse, average 30). Add about 800 ml of deionized or glass redistilled water and stir with a magnetic stirring bar until the detergents are dissolved. Add 9.534 gm sodium deoxycholate and continue stirring until dissolved. Then add 25.652 gm tetrasodium pyrophosphate (Na4 P2 O7.10 H2 O) and stir until the crystals dissolve. Add with stirring in approximately five equal portions a total of 231.51 gm of potassium chloride, allowing each portion to almost completely dissolve before adding the next. Stop the stirring when all of the KCl has dissolved. […]

[3] = molecular target: T2, crude human pancreas extract (human lipase) (Homo sapiens, UniProt P16233); test: as above; format: biochemical; details: for activation of crude human pancreas extract by quaternary ammonium compound: in the absence of bile salts
T2 construct: vinyl ester hydrolysis coupled to ADH/NADH
T2 sequence (P16233 17-465): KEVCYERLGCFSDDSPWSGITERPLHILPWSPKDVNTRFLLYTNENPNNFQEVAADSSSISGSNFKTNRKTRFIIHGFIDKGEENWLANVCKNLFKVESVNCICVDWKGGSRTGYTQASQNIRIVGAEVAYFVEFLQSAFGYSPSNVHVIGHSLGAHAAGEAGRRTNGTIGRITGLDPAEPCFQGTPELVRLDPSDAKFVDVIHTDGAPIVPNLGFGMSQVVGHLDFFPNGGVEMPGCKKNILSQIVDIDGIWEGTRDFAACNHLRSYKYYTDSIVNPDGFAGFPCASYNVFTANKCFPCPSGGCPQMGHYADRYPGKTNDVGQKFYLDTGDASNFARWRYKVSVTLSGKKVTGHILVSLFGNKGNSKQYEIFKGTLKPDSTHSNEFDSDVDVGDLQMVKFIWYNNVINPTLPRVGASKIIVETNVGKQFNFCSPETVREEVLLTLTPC

porcine liver esterase = test: as above; format: biochemical; details: for activation of porcine liver esterase by bile salt: vinyl omega-phenyl octanoate as substrate, sodium taurodeoxycholate zero to 25 mM, sodium cholate zero to 10 mM, sodium chenodeoxycholate zero to 15 mM
Excerpt: as §1, §2
(2) Buffer Solution. While the method of preparation of the buffer solution is not critical, one method for forming it is as follows: Weigh into a one liter beaker 3.134 gm 1, 1, 3, 3-tetramethyl-1-phenoxy (polyethoxy) butane (n=polydisperse, average 9) and 12.912 gm 1, 1, 3, 3-tetramethyl-1-phenoxy(polyethoxy)n butane, 70% (n=polydisperse, average 30). Add about 800 ml of deionized or glass redistilled water and stir with a magnetic stirring bar until the detergents are dissolved. Add 9.534 gm sodium deoxycholate and continue stirring until dissolved. Then add 25.652 gm tetrasodium pyrophosphate (Na4 P2 O7.10 H2 O) and stir until the crystals dissolve. Add with stirring in approximately five equal portions a total of 231.51 gm of potassium chloride, allowing each portion to almost completely dissolve before adding the next. Stop the stirring when all of the KCl has dissolved. Add 1.15 gm bovine serum albumin by sprinkling on the liquid surface. When all of the BSA has dissolved, begin stirring again and add more water to bring the volume up to about 950 ml. Adjust the pH to 9.1 with dilute HCl solution. […] Quantitatively transfer the solution to a one liter volumetric flask and add water to the mark. […] After any endogenous acetaldehyde in the reagent has been reduced and the corresponding oxidation of NADH has slowed to the normal blank rate, the absorbance at 340 nm in a 1 cm light path will be approximately 1.5. […]

SMILES: C=COC(=O)CCCCCCC/C=C\CCCCCCCC [vinyl oleate]
- effectiveness as substrate relative to glycerol trioleate [1]: 29.4%

SMILES: CCCCCCCCCCCCCCCC[N+](C)(C)Cc1ccccc1.[Cl-] [CDMBAC, cetyldimethylbenzyl ammonium chloride]
- activation of porcine pancreatic lipase by quaternary ammonium compound [2]: Activation
- activation of crude human pancreas extract by quaternary ammonium compound [3]: Activation

SMILES: CCCCCCCCCCCCCCCC[N+](C)(C)C.[Br-] [CTAB, cetyltrimethyl ammonium bromide]
- activation of porcine pancreatic lipase by quaternary ammonium compound [2]: Activation
- activation of crude human pancreas extract by quaternary ammonium compound [3]: Activation

SMILES: C[C@H](CCC(=O)O)[C@H]1CC[C@H]2[C@@H]3CC[C@@H]4C[C@H](O)CC[C@]4(C)[C@H]3C[C@H](O)[C@]12C [sodium deoxycholate]
- activation of porcine liver esterase by sodium deoxycholate (porcine liver esterase; concentrations up to about 25 mM): only slightly activated
- activation of human lipase by deoxycholate alone compared with the combination with CDMBAC ([3]; deoxycholate concentration about above 4 mM, in the absence of CDMBAC): activated to a much greater extent

SMILES: C[C@H](CCC(=O)O)[C@H]1CC[C@H]2[C@@H]3[C@H](O)C[C@@H]4C[C@H](O)CC[C@]4(C)[C@H]3C[C@H](O)[C@]12C [sodium cholate]
- activation of porcine pancreatic lipase by bile salt [2]: slightly activate
- activation of porcine liver esterase by bile salt (porcine liver esterase): slightly activate

SMILES: C[C@H](CCC(=O)NCCS(=O)(=O)O)[C@H]1CC[C@H]2[C@@H]3CC[C@@H]4C[C@H](O)CC[C@]4(C)[C@H]3C[C@H](O)[C@]12C [Sodium taurodeoxycholate, sodium taurodeoxycholate]
- activation of porcine pancreatic lipase by bile salt [2]: slightly activate
- activation of porcine liver esterase by bile salt (porcine liver esterase): slightly activate

SMILES: C[C@H](CCC(=O)O)[C@H]1CC[C@H]2[C@@H]3[C@H](O)C[C@@H]4C[C@H](O)CC[C@]4(C)[C@H]3CC[C@]12C [sodium chenodeoxycholate]
- activation of porcine pancreatic lipase by bile salt [2]: slightly activate
- activation of porcine liver esterase by bile salt (porcine liver esterase): slightly activate
